# Reference: US11744798B2, “Injectable pharmaceutical formulation” (UPM-Kymmene Corporation, priority 2019, dated 2023)
# How the values were obtained:
# [1] = Cumulative release study of CPF from NFC depots with solvents; format: physicochemical
# Procedure: Cumulative release study aiming to increase the release rate of CPF and receive close to 100% cumulative result for NFC-formulations within 7 days. Following detailed tasks were performed: • Two solvents, DMSO (Dimethyl sulfoxide) and NMP (N-methyl-2-pyrrolidone), in addition to H2O were used to enhance release of CPF • 6% anionic and 1.5% native NFC were studied • Study included formulation and short in vitro dissolution studies for NFC-API depots to follow cumulative release
# Cumulative release study aiming to increase cumulative result for NFC-formulations was performed with CPF, as it had clearly lower cumulative release results in previous experiments compared to MLX. 6% anionic and 1.5% native NFC were studied. Two solvents, DMSO (dimethyl sulfoxide) and NMP (N-methyl-2-pyrrolidone), in addition to H2O were used to enhance the release of CPF. The study included formulation and short in vitro dissolution studies for NFC-API depots to follow cumulative release (FIG. 7). Depots contained 50% of solvent and 50% of NFC.
# However, the increase was most apparent within the first hours and first day of study, which after the release reverted to the level of pure NFC formulations.
# [2] = water at 25° C.; cited from earlier work
Compound,effect on release of CPF ([1]; 50% DMSO in NFC depot),effect on release of CPF ([1]; 50% NMP in NFC depot),solubility in water [2] [µg/mL]
CC(C(=O)O)c1ccc2c(c1)[nH]c1ccc(Cl)cc12 (stereo not drawn) [Carprofen],increased the release,increased the release,–
Cc1cnc(NC(=O)C2=C(O)c3ccccc3S(=O)(=O)N2C)s1 [Meloxicam],–,–,7.15
